Reference: article PMC9794608 (Frontiers in Veterinary Science, 2022)
Where two headings read alike, the source gives them in different places.

Experiments:
laboratory beagle dogs = test: Sapanisertib escalating oral dose tolerability assessment; assay type: in vivo
Method: Determining a 0.1 mg/kg sapanisertib dosage for repeat dose studies was based upon extrapolation of previous studies in mice ([13], [20]), leading to initial evaluation of escalating individual oral doses of 0.1, 0.5, 0.65, and 0.8 mg/kg in one male (M), and one female (F) dog with a ≥3-day washout period between doses.
The initial efforts with sapanisertib focused on dose selection for ultimate testing in combination with orally administered trametinib dimethyl sulfoxide (trametinib) in nontumor-bearing laboratory beagle dogs. […] Sapanisertib dose escalation consisted of increased individual doses beginning with 0.10 mg/kg sapanisertib followed by a washout period of at least 3 days, and up to 7 days, between doses (Figure 2). Dogs lost body weight when dosed with ≥0.5 mg/kg sapanisertib. By day 23, the male dog had lost approximately 19% of initial body weight, while the female dog lost 7% body weight, and sapanisertib exposure was discontinued (Figure 2A). There was a trend toward recovery of modest amounts of body weight in these two dogs with the passage of sufficient time, post dose.
Figure 2 Sapanisertib escalating oral dose tolerability assessment in dogs. […] (A) Body weight (b.w.) changes with respect to time of first dose, in response to dosing as indicated. (B) Sapanisertib impact on select clinical pathology parameters for the testing days shown on x axis. Values on the y axis represent pre-treatment samples (0 days). Yellow-shaded area indicates reference range of values for normal healthy beagle dogs (Charles River Labs). Serum enzymes: ALT, alanine aminotransferase; AST, aspartate aminotransferase; ALP, alkaline phosphatase.

[1] = Plasma pharmacokinetics after single and repeat oral dose, LC-MS/MS, non-compartmental analysis; assay type: in vivo, Beagle dogs; conditions: for Sapanisertib accumulation with repeat dosing: 0.1 mg/kg p.o. QOD; for Cmax: read-out: CMAX (sapanisertib in plasma)
Method: Laboratory Beagle dogs (Charles River Labs, Mattawan, MI) served as surrogates in testing compounds proposed for application in canine clinical cancer care. The animals were at least six months old and weighed 6.4–8.8 kg at the initiation of study. They had routine veterinary care and had not been used in any previous studies. The study was conducted in AAALAC-accredited animal facilities [Charles River Laboratories, Inc., Mattawan, MI; NIH Office of Laboratory Animal Welfare Assurance approval (https://olaw.nih.gov/assured/app/index.html)], under review, monitoring, and approval of the facility's Institutional Animal Care and Use Committee according to U.S. Public Health Service national guidelines and regulations for the care and use of laboratory animals. The study was not designed to incorporate Good Laboratory Practices (GLP) regulatory criteria. Animals on study were monitored daily or more frequently and body weights were recorded, while periodic specimens were obtained for laboratory analyses. Clinical pathology analyses were included for hematology, serum chemistry, coagulation, urinalysis, and chemical bioanalysis was accomplished for pharmacokinetics (PK) (Table 1, repeat dose study) (Charles River Laboratories, Mattawan, MI).
Six male and six female beagle dogs were enrolled in a parallel, three-arm, fixed, repeat oral-dose study. […] In Group 2, two male (23001, 23002) and two female (23501, 23502) dogs were given sapanisertib alone (0.1 mg/kg) every other day (p.o., QOD). […] All dogs were dosed on study day 1 to obtain single dose PK samples, and then dosed serially days 4–20. Dogs were fasted overnight prior to dosing and fed ad libitum 2 h (hrs) following dose administration.
Plasma samples for PK were collected at pre-dose (-7 days), then beginning day 1 following the initial dose of each study group at 1, 2, 4, 8, 24, 48, and 72 h. On day 6, plasma samples were collected pre-dose, then 1, 2, 4, 8, and 24 h post-dose. On days 10 and 15, a 2-h post-dose sample was collected. On day 20, plasma samples were drawn at pre-dose and 1, 2, 4, 8, 24, 48, and 72 h post-dose. Treatment schedule and clinical pathology specimen sampling intervals are outlined in Table 1.
Each 50 μL aliquot of known concentration standards, quality control sample, or study sample was mixed with 200 μL of working internal standard solution (10 ng/mL in acetonitrile). The samples were vortexed and centrifuged. A 150 μL aliquot of the resulting supernatant was transferred to a clean 96-well plate, evaporated, and reconstituted with 100 μL of water/acetonitrile (40/60, v/v). An aliquot was injected onto an LC-MS/MS XBridge BEH C18 liquid chromatography system (Waters Associates, Framingham, MA) having 50 x 2.1 mm (2.5 μm particle size) column with an isocratic flow consisting of water/formic acid (100/0.1, v/v) and acetonitrile/formic acid (100/0.1, v/v) at a flow rate of 0.3000 mL/min for analysis. The analyte and internal standard were detected using an API 6500+ triple quadrupole LC-MS/MS system (AB Sciex, LLC, Framingham, MA) equipped with an ESI (TurboIonSpray®) ionization source operated in the positive ion mode.
A non-compartmental approach to PK analysis was employed using Phoenix WinNonlin v8.3 (Certara Corp, Cary, NC) that was validated per FDA 21CFR Part 11 regulations. The maximum plasma concentration (CMAX) and the time of maximum plasma concentration (TMAX) were recorded as observed values. […] AUCINF (the AUC from time zero to infinity) was calculated by extrapolation by dividing CLAST (the last measurable drug concentration) by the rate constant of the terminal phase, λZ. This constant was determined from the slope of the terminal phase of the concentration-time curve using uniformly-weighted least-squares as the estimation procedure and acceptance criteria of (i) adjusted r^2 > 0.8, (ii) includes > 3 time points in the terminal phase occurring after the TMAX. […]

mice = system: mice; set-up: method as in PMID 32943547; conditions: cited from earlier work
[2] = by day 23, escalating oral doses 0.1, 0.5, 0.65, 0.8 mg/kg
[3] = ≥ 0.5 mg/kg, both sexes, as low as
[4] = First dose (Day 1), sapanisertib 0.1 mg/kg p.o., mean (%CV), n = 4
[5] = canine sapanisertib only group 0.1 mg/kg versus human cancer patients receiving 4 mg oral sapanisertib

CC(C)n1nc(-c2ccc3oc(N)nc3c2)c2c(N)ncnc21 [Sapanisertib]
Serum chloride, times the pre-study value (laboratory beagle dogs; 0.8 mg/kg, male): 0.89 x | Serum sodium, times the pre-study value (laboratory beagle dogs; 0.8 mg/kg, male): 0.98 x | Loss of body weight, female dog (laboratory beagle dogs; [2]): 7% | Loss of initial body weight, male dog (laboratory beagle dogs; [2]): approximately 19% | Dose at which dogs lost body weight (laboratory beagle dogs; individual oral doses, 1 male and 1 female): ≥ 0.5 mg/kg | Red blood cell reticulocyte counts (laboratory beagle dogs; ≥ 0.5 mg/kg, both sexes): moderate to marked decreases | Serum cholesterol concentrations (laboratory beagle dogs; ≥ 0.5 mg/kg, both sexes): minimal to mild increases | Alanine aminotransferase (ALT), times the pre-study value (laboratory beagle dogs; [3]): ≥ 0.41 x | Aspartate aminotransferase (AST), times the pre-study value (laboratory beagle dogs; [3]): ≥ 0.68 x | Serum alkaline phosphatase (ALP), times the pre-study value (laboratory beagle dogs; [3]): ≥ 0.36 x | Sapanisertib accumulation with repeat dosing ([1]; day 1 to day 20): did not display accumulation | Sapanisertib accumulation with repeat dosing ([1]; day 1 to day 20, listed as sapanisertib): not observed to significantly accumulate | AUCINF (sapanisertib in plasma) [1, 4]: 247.5 (41%) hr^*ng/mL | V/F (sapanisertib) [1, 4]: 3.85 (34%) L/kg | V/F (sapanisertib) ([1]; Steady-state (Day 20), sapanisertib 0.1 mg/kg p.o. QOD, mean (%CV), n = 4): 3.97 (33%) L/kg | Sapanisertib plasma level at day 15 ([1]; approximately 24 h from the previous dose, Groups 2,3): minimal detectable | half-life ([1]; both sexes, beagle, dog, plasma, po, 0.1 mg/kg, 0.1 mg/kg p.o., day 1 to day 20, read-out: Sapanisertib half-life (range)): 4.8 to 6.8 h | AUC(0-inf) ([1]; both sexes, beagle, dog, plasma, po, 0.1 mg/kg, First dose (Day 1), sapanisertib 0.1 mg/kg p.o., mean (%CV), n = 4, read-out: AUCINF (sapanisertib in plasma)): 248 ng·h/mL | half-life ([1]; both sexes, beagle, dog, plasma, po, 0.1 mg/kg, First dose (Day 1), sapanisertib 0.1 mg/kg p.o., mean (%CV), n = 4, read-out: T1/2 (sapanisertib in plasma) (converted)): 5.94 h | Tmax ([1]; both sexes, beagle, dog, plasma, po, 0.1 mg/kg, First dose (Day 1), sapanisertib 0.1 mg/kg p.o., median (range), n = 4, read-out: TMAX (sapanisertib in plasma)): 2 h | Cmax ([1]; both sexes, beagle, dog, plasma, po, 0.1 mg/kg, Steady-state (Day 6), sapanisertib 0.1 mg/kg p.o. QOD, mean (%CV), n = 4): 28.1 ng/mL | Cmax ([1]; both sexes, beagle, dog, plasma, po, 0.1 mg/kg, Steady-state (Day 10), sapanisertib 0.1 mg/kg p.o. QOD, mean (%CV), n = 4): 23.6 ng/mL | AUC ([1]; both sexes, beagle, dog, plasma, po, 0.1 mg/kg, Steady-state (Day 20), sapanisertib 0.1 mg/kg p.o. QOD, mean (%CV), n = 4, read-out: AUCTAU (sapanisertib in plasma)): 250 ng·h/mL | Cmax ([1]; both sexes, beagle, dog, plasma, po, 0.1 mg/kg, Steady-state (Day 20), sapanisertib 0.1 mg/kg p.o. QOD, mean (%CV), n = 4): 27.4 ng/mL | half-life ([1]; both sexes, beagle, dog, plasma, po, 0.1 mg/kg, Steady-state (Day 20), sapanisertib 0.1 mg/kg p.o. QOD, mean (%CV), n = 4, read-out: T1/2 (sapanisertib in plasma) (converted)): 6.28 h | Tmax ([1]; both sexes, beagle, dog, plasma, po, 0.1 mg/kg, Steady-state (Day 20), sapanisertib 0.1 mg/kg p.o. QOD, median (range), n = 4, read-out: TMAX (sapanisertib in plasma)): 2 h | Tmax ([1]; both sexes, beagle, dog, plasma, po, 0.1 mg/kg, dogs, 0.1 mg/kg p.o., read-out: Sapanisertib Tmax on average): 2 h | CL/F ([1]; both sexes, beagle, dog, plasma, po, First dose (Day 1), sapanisertib 0.1 mg/kg p.o., mean (%CV), n = 4): 7.83 mL/min/kg | Cmax ([1]; both, beagle, dog, plasma, po, 0.1 mg/kg, First dose (Day 1), sapanisertib 0.1 mg/kg p.o., alone or with trametinib […] (see label), arithmetic mean (%CV), n = 4): 26.3 ng/mL | Mean animal to human exposure ratio, AUCINF [1, 5]: 1.31 | Mean animal to human exposure ratio, CMAX [1, 5]: 1.11 | Mean animal to human exposure ratio, T1/2 [1, 5]: 0.91 | Sapanisertib absorption time (range) ([1]; initial and repeat dose, 0.1 mg/kg p.o.): 1 to 4 h | Kidney findings in mice, every other day dosing (mice; mice, […] sapanisertib every other day): did not exhibit substantive AKI | Kidney findings in mice, daily dosing (mice; some mice given […] sapanisertib daily): acute kidney injury (AKI) with moderate histopathological cortical tubular epithelial degeneration and necrosis
